Legend:
[1] = tested on: Chikungunya Virus (CHIKV) strain LR2006-OPY1 with GFP modification (CHIK 5'LR); assay: microbe, parasite or virus in culture; assay type: cell-based; details: HEK-293T, infected HEK293T cells; for IC50: second round of experiments, range stated for listed compounds, read-out: IC50 (CHIKV inhibition); for inhibition at 1 µM: compounds at 1 μM, MOI 0.1, 22 h, mean of 2 experiments, values above 100 lowered to 100, read-out: % CHIKV Inhibition Mean (n = 2)
Description: The ability of the compounds to inhibit viral replication was assessed with an experiment in which infected cells were treated by compounds of formula (Ie) at 1 μM. As a positive control for inhibition of Chikungunya, Ribavirin was used. Toxicity of the compounds was assessed in parallel.
Human embryonic kidney cells 293T (HEK293T, CRL-11268) were maintained in Dulbecco's modified Eagle's Medium (DMEM, 31966-021, Thermo Fisher Scientific) supplemented with 10% of fetal bovine serum (FBS), penicillin and streptomycin. After removal of the medium, cells were washed with Ca^2+ and Mg^2+-free salt solution to remove all traces of serum. After aspiration of wash solution, cells were dissociated with 0.25% Trypsin-EDTA solution and incubated 30 s at least in 37° C. incubator. Concentration of cell suspension was determined by an automatic cell counter (EVE, NanoEntek) and, if needed, adjusted to 0.33×10^6 cells/mL with DMEM medium supplemented with 10% FBS.
100 μL of the cell suspension were dispatched in a ViewPlate-96 Black (6005182, PerkinElmer) and in a transparent 96-well cell culture plate (655180, Greiner bio-one). After an incubation for 24 h at 37° C. under 5% of CO2, compounds were added at the proper concentration.
An intermediate dilution was prepared with DMSO (D8418, Sigma) at 2 mM in a 96-well V-bottom microplate from the stock solution:
Mix 1 μL of the 50 mM stock library in 25 μL of DMSO.
Mix 2 μL of the 25 mM stock library in 25 μL of DMSO.
An intermediate dilution was prepared with DMSO (D8418, Sigma) at 25 mM in a 96-well V-bottom microplate from the stock solution:
Mix 2 μL of the 50 mM stock library in 2 μL of DMSO.
Perform serial dilution in 2 μL of DMSO 13 times to reach 0.0015 mM. Proceed as follows in table III:
For both screen and determination of IC50, 1 μL of each solution was added in a 1 mL Masterblock 96 wells (Greiner bio-one, 780261) containing 1 mL of DMEM medium. As a positive control, 5 μL of a 80 mM Ribavirin solution (R9644, Sigma) is added to 1 mL of DMEM. On the other hand, DMSO is used as a negative control.
[…]. Vector Borne Zoonotic Dis. 2006; 6(4)). This modified virus was used to infect cells at MOI 0.1. […].
Medium was removed after 22 h at 37° C. under 5% of CO2 and cells were washed as described above. 60 μL of RIPA buffer (50 mM Tris-HCl pH8, 100 mM NaCl, 1 mM MgCl2, 1% Triton X-100) was added to cells and incubated for at least 20 min before reading fluorescence signal. Pierce 660 nm Protein Assay Reagent (22660, Thermo scientific) was used to normalize fluorescence signal by protein quantity.
• A first round of experiments has been performed wherein the results are expressed as inhibition percentage, which is calculated as follows, through the following steps: • 1. Fluorescence intensity (FI)/Absorbance 660 nm (A660)=A
This ratio allows considering the infection (GFP virus) to the protein amount. • 2. A′=A−background noise of non-infected plate, • 3. B=Fluorescence intensity (FI)/Absorbance 660 nm (A660) of infected but non treated plates, • 4. C=A′/B, which is then converted as the percentage of infection after treatment, compared to non-treated sample, and subsequently as the infection percentage. For instance, a value of 100 in Table IV here below means that, after treatment, the signal attributed to GFP fluorescence is abolished, which is correlated to the absence of infection. • 5. C′=100−C
This value corresponds to the inhibition's percentage.
The following Table IV encompasses said C′ value for some compounds, as calculated above with a mean of 2 experiments, and corresponding standard deviation.
Some values were originally above 100. In these cases, the value has been lowered to 100. This means that some molecules also have an impact on the viability of the cells. In other words, the A value may be lower than the background noise.
Moreover, for each measure, the test was performed with Ribavirin as control. The value of the inhibition percentage was checked, giving 100%.

[2] = tested on: RSV A2; assay: RSV inhibition (cytopathic effect inhibition) using Viral ToxGlo assay in HEp-2 cells; assay type: cell-based; details: human respiratory syncytial virus, RSV A2, MOI 0.5, HEp-2 cells, 72 h p.i.
How it was run: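 HEp-2 cells in EMEM with 2% FBS were infected with RSV A2 at MOI 0.5 immediately after compound (≤1% DMSO) and incubated 72 h at 37 °C. Viral ToxGlo luminescence gave % cytopathic effect inhibition versus virus control, plus cytotoxicity versus cell control; EC50 derived from dose-response.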

`Cc1cc(OCc2ccccn2)ccc1Nc1cccc(NC(=O)NCCC(C)C)c1` [Compound 68, 1-isopentyl-3-(3-((2-methyl-4-(pyridin-2-ylmethoxy)phenyl)amino)phenyl)urea] showed an IC50 [1] of 1 to 400 nM and an EC50 [2] of 144 nM.
`O=C(NCCC1CCCCC1)c1cccc(Nc2ccc(OCc3ccccn3)cc2)c1` [Compound 38, N-(2-cyclohexylethyl)-3-((4-(pyridin-2-ylmethoxy)phenyl)amino)benzamide] gave an inhibition at 1 µM [1] of 99% and an EC50 [2] of 281 nM.
`Cc1cc(OCc2ccccn2)ccc1Nc1cccc(C(=O)NCCC2CC2)c1` [Compound 45, N-(2-cyclopropylethyl)-3-((2-methyl-4-(pyridin-2-ylmethoxy)phenyl)amino)benzamide] showed an inhibition at 1 µM [1] of 99% and an EC50 [2] of 280 nM.
Work on `Cc1cc(OCc2ccccn2)ccc1Nc1cccc(C(=O)NCCC2CCC2)c1` [Compound 46, N-(2-cyclobutylethyl)-3-((2-methyl-4-(pyridin-2-ylmethoxy)phenyl)amino)benzamide] yielded an inhibition at 1 µM [1] of 99% and an EC50 [2] of 199 nM.
`CCCC(C)NC(=O)c1cccc(Nc2ccc(OCc3ccccn3)cc2)c1` (stereo not shown) [Compound 64, N-(pentan-2-yl)-3-((4-(pyridin-2-ylmethoxy)phenyl)amino)benzamide] was tested, and the IC50 [1] was 1 to 400 nM and the EC50 [2] was 341 nM.

— US12421206B2, “Aryl-n-aryl derivatives for treating a RNA virus infection” (ABIVAX, priority 2018, dated 2025)
